Data from US20260250318A1, “COMPOSITIONS AND METHODS FOR CROSSING THE BLOOD BRAIN BARRIER” (VOYAGER THERAPEUTICS, INC., priority 2022, published 2026).

Test system: brain
Test: Maturation of TTM-002 capsid, NGS enrichment in brain of CD-1 Outbred mice
Format: in vivo
Settings: NGS fold-enrichment in the brain of CD-1 Outbred mice; intravenous, 1.0×10^12 VG/dose, 14 days; RNA; relative to non-matured TTM-002 control
Excerpt: This Example describes maturation of the TTM-001 (SEQ ID NO: 981 (amino acid) and 983 (DNA), comprising SEQ ID NO: 941) and TTM-002 (SEQ ID NO: 982 (amino acid) and 984 (DNA), comprising SEQ ID NO: 2) capsid variants to further enhance their transduction and biodistribution in the central nervous system and evolve the AAV capsid variants to provide further cross-species compatibility. Two approaches were used to mature the TTM-001 and TTM-002 capsid sequences in order to randomize and mutate within and around the peptide insert comprised within loop IV of the capsid variant. […] In the first maturation approach, sets of three contiguous amino acids were randomized across the mutagenesis region in the TTM-001 and TTM-002 sequences, which spanned from position 450 to position 466, numbered according to SEQ ID NO: 981 and 982. In the second maturation approach, mutagenic primers were used to introduce point mutations at a low frequency, scattered across the mutagenesis region in the TTM-001 and TTM-002 sequences ranging from position 449 to position 466, numbered according to SEQ ID NO: 981 and 982. AAV capsid variants arising from each maturation approach for TTM-001 were pooled together and AAV capsid variants arising from each maturation approach for TTM-002 were also pooled together, for subsequent testing and characterization in mice.
The library of pooled matured AAV capsid variants generated from TTM-001 or library of pooled matured AAV capsid variants generated from the TTM-002 matured AAV capsid variant each were intravenously injected into the tail vein of three female CD-1 Outbred mice (Charles River) at a dose of 1.0×10^12 VG/dose. After 14-days in life, the brains of the mice were isolated and RNA was extracted. Following RNA recovery and RT-PCR amplification, a systematic NGS enrichment analysis was performed to calculate the fold enrichment ratio relative to the corresponding TTM-001 or TTM-002 control, and the peptides comprised within the variants were identified. The data for the TTM-001 matured capsid variants is provided in Table 13 and the data for the TTM-002 matured capsid variants is provided in Table 14.

For KADMGHDSPHKSGQNQQT, the “Fold enrichment over TTM-002” value was 2.48.

KADQGHDSPHKSGQNQQT was tested, and the “Fold enrichment over TTM-002” value was 2.07.

For KADWGHDSPHKSGQNQQT, the “Fold enrichment over TTM-002” value was 2.32.

In the case of KADYGHDSPHKSGQNQQT, the “Fold enrichment over TTM-002” value is reported as 2.40.

KAEQGHDSPHKSGQNQQT was tested, and the “Fold enrichment over TTM-002” value was 2.14.

In the case of KAEVGHDSPHKSGQNQQT, the “Fold enrichment over TTM-002” value is reported as 2.15.

For KAEWGHDSPHKSGQNQQT, the “Fold enrichment over TTM-002” value was 2.69.

KANNGQDSPHKSGQNQQT was tested, and the “Fold enrichment over TTM-002” value was 2.67.

With KATNGHDSPHKSGLNQQT the “Fold enrichment over TTM-002” value was 2.10.

With KCEIGHDSPHKSGQNQQT the “Fold enrichment over TTM-002” value was 2.10.

For KCEWGHDSPHKSGQNQQT, the “Fold enrichment over TTM-002” value was 2.68.

For KCEYGHDSPHKSGQNQQT, the “Fold enrichment over TTM-002” value was 2.36.

For KDIMGHDSPHKSGQNQQT, the “Fold enrichment over TTM-002” value was 2.23.

In the case of KFEQGHDSPHKSGQNQQT, the “Fold enrichment over TTM-002” value is reported as 2.22.

For KHDWGHDSPHKSGQNQQT, the “Fold enrichment over TTM-002” value was 2.00.

For KIEGGHDSPHKSGQNQQT, the “Fold enrichment over TTM-002” value was 2.00.

In the case of KIEIGHDSPHKSGQNQQT, the “Fold enrichment over TTM-002” value is reported as 2.30.

In the case of KIEMGHDSPHKSGQNQQT, the “Fold enrichment over TTM-002” value is reported as 2.05.

For KIENGHDSPHKSGQNQQT, the “Fold enrichment over TTM-002” value was 2.19.

With KIESGHDSPHKSGQNQQT the “Fold enrichment over TTM-002” value was 2.11.

With KIETGHDSPHKSGQNQQT the “Fold enrichment over TTM-002” value was 2.38.

In the case of KIEVGHDSPHKSGQNQQT, the “Fold enrichment over TTM-002” value is reported as 2.16.

For KIEYGHDSPHKSGQNQQT, the “Fold enrichment over TTM-002” value was 2.41.

KIINGHDSPHKSGLTQQT was tested, and the “Fold enrichment over TTM-002” value was 2.17.

KIPEGHDSPHKSGQNQQT was tested, and the “Fold enrichment over TTM-002” value was 2.54.

KISNGHDSPHKSAQNQQT was tested, and the “Fold enrichment over TTM-002” value was 2.03.

With KLEWGHDSPHKSGQNQQT the “Fold enrichment over TTM-002” value was 2.14.
